Our source for the IC50 values is patent US20260297083A1, “SUBSTITUTED ACETYLENE COMPOUND DERIVATIVES AND THEIR PHARMACEUTICAL USE” (AVELOS THERAPEUTICS INC., priority 2023, published 2026).

Some results are limits rather than exact numbers.

For the first assay, the system named is DLD-1 BRCA2(−/−) Cell. Briefly: Cell viability assay (Resazurin) in DLD1-BRCA2 cells. Format: cell-based. Conditions: 14 days, 1,500 cells/well, final DMSO 1%. In short, it runs like this: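 DLD1-BRCA2 KG cells seeded at 1,500/well (parental 600/well) in RPMI-1640 with 10% FBS, compound added after 4 h (1% DMSO), media replaced every 3-4 days over 14 days at 37° C. Viability read by resazurin (0.1 mg/ml, 4 h) fluorescence at Ex/Em 560/590 nm; IC50 fitted.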
In general terms: Alamar Blue is a resazurin reagent that responds to reducing activity.
In turn, “(S)-N-(3-(6-aminopyridazin-3-yl)prop-2-yn-1- yl)-2-(6-methyl-4-(trifluoromethyl)pyridin-2- yl)-N-(m-tolyl)isothiazolidine-3-carboxamide 1,1-dioxide [Example 19]” yielded an IC50 of 1.1 to 5 µM.

The assay is the same for the next values; noted with them: Homo sapiens, DLD-1, 336 h, 14 days, 1,500 cells/well, final DMSO 1%.
`Cc1cc(C(F)(F)F)cc(N2[C@H](C(=O)N(CC#Cc3cnc(C(N)=O)c(F)c3)c3ccc(F)c(C)c3)CCS2(=O)=O)n1` [Example 96, (S)-N-(3-(6-carbamoyl-5-fluoropyridin-3-yl)prop-2-yn-1-yl)-N-(4-fluoro-3-methylphenyl)-2-(6-methyl-4-(trifluoromethyl)pyridin-2-yl)isothiazolidine-3-carboxamide 1,1-dioxide] displayed an IC50 of under 1 µM.

The molecule `Cc1cc(C(F)(F)F)cc(N2[C@H](C(=O)N(CC#Cc3ccc(C(N)=O)cn3)c3ccc(F)c(C)c3)CCS2(=O)=O)n1` [Example 97, (S)-N-(3-(5-carbamoylpyridin-2-yl)prop-2-yn-1-yl)-N-(4-fluoro-3-methylphenyl)-2-(6-methyl-4-(trifluoromethyl)pyridin-2-yl)isothiazolidine-3-carboxamide 1,1-dioxide] came in with a half-maximal inhibitory concentration (IC50) of under 1 µM.

In turn, `Cc1cc(C(F)(F)F)cc(N2[C@H](C(=O)N(CC#Cc3cnc4c(c3)CN(C)C4=O)c3ccc(F)c(C)c3)CCS2(=O)=O)n1` [Example 98, (S)-N-(4-fluoro-3-methylphenyl)-2-(6-methyl-4-(trifluoromethyl)pyridin-2-yl)-N-(3-(6-methyl-7-oxo-6,7-dihydro-5H-pyrrolo[3,4-b]pyridin-3-yl)prop-2-yn-1-yl)isothiazolidine-3-carboxamide 1,1-dioxide] had a 50% inhibitory concentration (IC50) of under 1 µM.

As for `Cc1cc(C(F)(F)F)cc(N2[C@H](C(=O)N(CC#Cc3cnc4c(c3)C(C)(C)N(C)C4=O)c3ccc(F)c(C)c3)CCS2(=O)=O)n1` [Example 99, (S)-N-(4-fluoro-3-methylphenyl)-2-(6-methyl-4-(trifluoromethyl)pyridin-2-yl)-N-(3-(5,5,6-trimethyl-7-oxo-6.7-dihydro-5H-pyrrolo[3,4-b]pyridin-3-yl)prop-2-yn-1-yl)isothiazolidine-3-carboxamide 1,1-dioxide], the IC50 was in the range of 1.1 to 5 µM.

With `Cc1cc(C(F)(F)F)cc(N2[C@H](C(=O)N(CC#Cc3cnc4c(c3)C(=O)N(C)C4=O)c3ccc(F)c(C)c3)CCS2(=O)=O)n1` [Example 100, (S)-N-(4-fluoro-3-methylphenyl)-2-(6-methyl-4-(trifluoromethyl)pyridin-2-yl)-N-(3-(6-methyl-5,7-dioxo-6,7-dihydro-5H-pyrrolo[3,4-b]pyridin-3-yl)prop-2-yn-1-yl)isothiazolidine-3-carboxamide 1,1-dioxide], the half-inhibitory concentration (IC50) was over 5.1 µM.

With `Cc1cc(C(F)(F)F)cc(N2[C@H](C(=O)N(CC#Cc3n[nH]c(=O)c4ccccc34)c3ccc(F)c(C)c3)CCS2(=O)=O)n1` [Example 101, (S)-N-(4-fluoro-3-methylphenyl)-2-(6-methyl-4-(trifluoromethyl)pyridin-2-yl)-N-(3-(4-oxo-3,4-dihydrophthalazin-1-yl)prop-2-yn-1-yl)isothiazolidine-3-carboxamide 1,1-dioxide], the IC50 lay in the range of 1.1 to 5 µM.

Turning to `Cc1cc(C(F)(F)F)cc(N2[C@H](C(=O)N(CC#Cc3cncn3C)c3ccc(F)c(C)c3)CCS2(=O)=O)n1` [Example 102, (S)-N-(4-fluoro-3-methylphenyl)-N-(3-(1-methyl-1H-imidazol-5-yl)prop-2-yn-1-yl)-2-(6-methyl-4-(trifluoromethyl)pyridin-2-yl)isothiazolidine-3-carboxamide 1,1-dioxide], the IC50 was 1.1 to 5 µM.

Regarding `Cc1cc(C(F)(F)F)cc(N2[C@H](C(=O)N(CC#Cc3ncnc(N4CCOCC4)n3)c3ccc(F)c(C)c3)CCS2(=O)=O)n1` [Example 103, (S)-N-(4-fluoro-3-methylphenyl)-2-(6-methyl-4-(trifluoromethyl)pyridin-2-yl)-N-(3-(4-morpholino-1,3,5-triazin-2-yl)prop-2-yn-1-yl)isothiazolidine-3-carboxamide 1,1-dioxide], the IC50 was under 1 µM.

As to `Cc1cc(C(F)(F)F)cc(N2[C@H](C(=O)N(CC#Cc3nc(C(N)=O)co3)c3ccc(F)c(C)c3)CCS2(=O)=O)n1` [Example 104, (S)-2-(3-(N-(4-fluoro-3-methylphenyl)-2-(6-methyl-4-(trifluoromethyl)pyridin-2-yl)-1,1-dioxidoisothiazolidine-3-carboxamido)prop-1-yn-1-yl)oxazole-4-carboxamide], the half-maximal inhibitory concentration (IC50) is under 1 µM.

In turn, `Cc1cc(C(F)(F)F)cc(N2[C@H](C(=O)N(CC#Cc3ccc(C(N)=O)cc3)c3ccc(F)c(C)c3)CCS2(=O)=O)n1` [Example 105, (S)-N-(3-(4-carbamoylphenyl)prop-2-yn-1-yl)-N-(4-fluoro-3-methylphenyl)-2-(6-methyl-4-(trifluoromethyl)pyridin-2-yl)isothiazolidine-3-carboxamide 1,1-dioxide] registered an IC50 of 1.1 to 5 µM.

Consider `Cc1cc(C(F)(F)F)cc(N2[C@H](C(=O)N(CC#Cc3cccc(C(N)=O)c3)c3ccc(F)c(C)c3)CCS2(=O)=O)n1` [Example 106, (S)-N-(3-(3-carbamoylphenyl)prop-2-yn-1-yl)-N-(4-fluoro-3-methylphenyl)-2-(6-methyl-4-(trifluoromethyl)pyridin-2-yl)isothiazolidine-3-carboxamide 1,1-dioxide], for which the concentration for half-maximal inhibition (IC50) lay within 1.1 to 5 µM.

`Cc1cccc(N(CC#Cc2ccc(N)nn2)C(=O)[C@@H]2CN(C)S(=O)(=O)N2c2cc(C(F)(F)F)cc(C)n2)c1` [Example 107, (3S)-N-[3-(6-aminopyridazin-3-yl)prop-2-ynyl]-5-methyl-2-[6-methyl-4-(trifluoromethyl)-2-pyridyl]-N-(m-tolyl)-1,1-dioxo-1,2,5-thiadiazolidine-3-carboxamide]: the IC50 lay in the range of 1.1 to 5 µM.

Regarding `Cc1cccc(N(CC#Cc2cnc(N)cn2)C(=O)[C@@H]2CN(C)S(=O)(=O)N2c2cc(C(F)(F)F)cc(C)n2)c1` [Example 108, (S)-N-(3-(5-aminopyrazin-2-yl)prop-2-yn-1-yl)-5-methyl-2-(6-methyl-4-(trifluoromethyl)pyridin-2-yl)-N-(m-tolyl)-1,2,5-thiadiazolidine-3-carboxamide 1,1-dioxide], the IC50 was in the range of 1.1 to 5 µM.

With `Cc1cc(C(F)(F)F)cc(N2[C@H](C(=O)N(CC#Cc3ccc(N)nn3)c3ccc(F)c(C)c3)CN(C)S2(=O)=O)n1` [Example 109, (S)-N-(3-(6-aminopyridazin-3-yl)prop-2-yn-1-yl)-N-(4-fluoro-3-methylphenyl)-5-methyl-2-(6-methyl-4-(trifluoromethyl)pyridin-2-yl)-1,2,5-thiadiazolidine-3-carboxamide 1,1-dioxide], the half-maximal inhibitory concentration (IC50) was in the range of 1.1 to 5 µM.

With `Cc1cc(C(F)(F)F)cc(N2[C@H](C(=O)N(CC#Cc3ccc(N)nn3)c3ccc(F)c(C)c3)CN(C(C)C)S2(=O)=O)n1` [Example 110, (S)-N-(3-(6-aminopyridazin-3-yl)prop-2-yn-1-yl)-N-(4-fluoro-3-methylphenyl)-5-isopropyl-2-(6-methyl-4-(trifluoromethyl)pyridin-2-yl)-1,2,5-thiadiazolidine-3-carboxamide 1,1-dioxide], the IC50 lay in the range of 1.1 to 5 µM.

`Cc1cc(C(F)(F)F)cc(N2[C@H](C(=O)N(CC#Cc3ccc(C(=O)N(C)C)nc3)c3ccc(F)c(C)c3)CCS2(=O)=O)n1` [Example 111, (S)-N-(3-(6-(dimethylcarbamoyl)pyridin-3-yl)prop-2-yn-1-yl)-N-(4-fluoro-3-methylphenyl)-2-(6-methyl-4-(trifluoromethyl)pyridin-2-yl)isothiazolidine-3-carboxamide 1,1-dioxide]: the IC50 was under 1 µM.

Molecule `Cc1cc(C(F)(F)F)cc(N2[C@H](C(=O)N(CC#Cc3ccc(C#N)nc3)c3ccc(F)c(C)c3)CCS2(=O)=O)n1` [Example 115, (S)-N-(3-(6-cyanopyridin-3-yl)prop-2-yn-1-yl)-N-(4-fluoro-3-methylphenyl)-2-(6-methyl-4-(trifluoromethyl)pyridin-2-yl)isothiazolidine-3-carboxamide 1,1-dioxide] displayed an IC50 of under 1 µM.

In turn, `Cc1cc(C(F)(F)F)cc(N2[C@H](C(=O)N(CC#Cc3ccc(-c4ncon4)nc3)c3ccc(F)c(C)c3)CCS2(=O)=O)n1` [Example 116, (S)-N-(3-(6-(1,2,4-oxadiazol-3-yl)pyridin-3-vl)prop-2-yn-1-yl)-N-(4-fluoro-3-methylphenyl)-2-(6-methyl-4-(trifluoromethyl)pyridin-2-yl)isothiazolidine-3-carboxamide 1,1-dioxide] registered a concentration for half-maximal inhibition (IC50) of under 1 µM.

With `Cc1cc(C(F)(F)F)cc(N2[C@H](C(=O)N(CC#Cc3ccc(C(N)=O)nc3C)c3ccc(F)c(C)c3)CCS2(=O)=O)n1` [Example 117, (S)-N-(3-(6-carbamoyl-2-methylpyridin-3-yl)prop-2-yn-1-yl)-N-(4-fluoro-3-methylphenyl)-2-(6-methyl-4-(trifluoromethyl)pyridin-2-yl)isothiazolidine-3-carboxamide 1,1-dioxide], the half-inhibitory concentration (IC50) was under 1 µM.

What is called IC50 is the concentration that gives 50% inhibition. A high value points to weaker potency in that assay.
